Experimental data from US20230346717A1, “IDENTIFICATION AND USE OF COMPOUNDS IN THE TREATMENT OR PREVENTION OF SEVERE ACUTE RESPIRATORY SYNDROME CORONAVIRUS 2” (priority 2020, published 2023).
Counter-ions that a name gives are not always drawn.

How the values were obtained:
[1] = sepsis-induced acute lung injury in rats; cited from earlier work
[2] = rats; cited from earlier work
[3] = people with nonalcoholic fatty liver disease; cited from earlier work
[4] = people with heart failure; cited from earlier work
[5] = people with diabetes; cited from earlier work
[6] = people with dyslipidemia; cited from earlier work
CTSL = assay type: cell-based, human; conditions: ARPE-19/HPV-16 cells, 10 μM drug, 24 hours
Protocol: The retinal pigment epithelia cell line, ARPE-19/HPV-16, was chosen to establish a database of drug profiles because of its non-cancerous, human origin, with a normal karyotype.
Cells were aliquoted on 96-well plates (˜2×10^5 cells/well) and incubated for 24 hours prior to providing fresh media with a drug, or the drug vehicle (water, dimethyl sulfoxide, ethanol, methanol, or phosphate-buffered saline solution). Drugs were diluted 1000-fold in buffered Advanced D-MEM/F-12 culture medium (Invitrogen, Carlsbad, CA) containing nonessential amino acids and 110 mg/L sodium pyruvate.
Cells were harvested 24 hours after treatment and RNA was extracted using the RNeasy 96 protocol (Qiagen, Valencia, CA). Gene expression for 22,238 probe sets of 12,490 genes was generated with U133A2.0 microarrays following the manufacturer's instructions (Affymetrix, Santa Clara, CA). Drugs were profiled in duplicate or triplicate, with multiple vehicle controls on each plate. A total of 708 microarrays were analyzed including 74 for 18 antipsychotics, 499 for 448 other compounds, and 135 for vehicle controls.
The raw scan data were first converted to average difference values using MAS 5.0 (Affymetrix). The average difference values of both treatment and control data were set to a minimum threshold of 50 if below 50. For each treatment instance, all probe sets were then ranked based on their amplitude, or level of expression relative to the vehicle control (or average of controls when more than one was used). Amplitude was defined as the ratio of expression (t−v)/[(t+v)/2] where t corresponds to treatment instance and v to vehicle instance.
Each drug group profile was created using a novel Weighted Influence Model, Rank of Ranks (WIMRR) method which underscores the rank of each probe set across the entire gene expression profile rather than the specific change in expression level. WIMRR takes the average rank of each probe set across all of the members of the group and then re-ranks the probe sets from smallest average rank to largest average rank. A gene-set enrichment metric based on the Kolmogorov-Smirnov (KS) statistic.
Applicant analyzed expression profile of CTSL across all 466 drugs tested. In order to find positive hits and selected only those results that caused decrease of CTSL expression by at least 33% (1.5-fold down).

FYCO1 = assay type: cell-based, human; conditions: ARPE-19 cells
[7] = 230 ventilated patients with ALI; cited from earlier work
[8] = 492 patients; cited from earlier work
[9] = 404 ALI patients and 177 controls; cited from earlier work
[10] = within 14 days of treatment; cited from earlier work

Compound	log2(treated) CTSL (CTSL)	log2 difference (CTSL, treated vs control) (CTSL)	FYCO1 expression, Difference (treated vs control) (FYCO1)	FYCO1 expression, Treated (FYCO1)	also measured
COC1=C(OC)C(=O)C(C/C=C(\C)CC/C=C(\C)CC/C=C(\C)CC/C=C(\C)CC/C=C(\C)CC/C=C(\C)CC/C=C(\C)CC/C=C(\C)CC/C=C(\C)CCC=C(C)C)=C(C)C1=O [CoQ10, Coenzyme Q10]	–	–	–	–	pulmonary edema [1]: improved; survival [1]: improved; fibrosis in the lung and liver [2]: beneficial in attenuating fibrosis; liver and systemic markers of inflammation [3]: improves; mortality and cardiac markers [4]: improves; total cholesterol and low-density lipoprotein levels [5]: improve; endothelial dysfunction [6]: improve
CN1[C@@H]2CC[C@H]1C[C@@H](OC(=O)C(CO)c1ccccc1)C2 (some centres unmarked) [Atropine Sulfate]	9.63 log2	−0.70 log2	–	–	–
COc1ccc2c(c1)c(CC(=O)O)c(C)n2C(=O)c1ccc(Cl)cc1 [indomethacin]	–	–	−1.539	4.949	–
Cc1ccc(/C(=C\CN2CCCC2)c2ccccn2)cc1 [Triprolidine Hydrochloride]	9.54 log2	−0.79 log2	−1.4935	6.4963	–
NCC(CC(=O)O)c1ccc(Cl)cc1 (centres unmarked) [Baclofen]	9.58 log2	−0.82 log2	−1.2190	6.7222	–
CC(C)(C)C(=O)Oc1ccc(S(=O)(=O)Nc2ccccc2C(=O)NCC(=O)O)cc1 [sivelestat]	–	–	–	–	30-day survival rate [7]: no significant effect; ICU stay [7]: shortened; duration of mechanical ventilation [7]: reduced; 28-day all-cause mortality [8]: no effect; ventilator free days [8]: no effect; number of ventilator free days [9]: significantly improved
O=C1NC(=O)C(c2ccccc2)(c2ccccc2)N1 [Phenytoin]	9.56 log2	−0.70 log2	–	–	–
CN(C)CCC(c1ccc(Br)cc1)c1ccccn1 (centres unmarked) [Brompheniramine Maleate]	9.57 log2	−0.75 log2	–	–	–
CCC1(c2ccccc2)C(=O)NCNC1=O [primidone]	–	–	−1.4959	6.4453	–
CC(C)c1c(C(=O)Nc2ccccc2)c(-c2ccccc2)c(-c2ccc(F)cc2)n1CC[C@@H](O)C[C@@H](O)CC(=O)O [Atorvastatin]	–	–	–	–	decrease of the level of CoQ10 [10]: 49%
